The results in this text go back to PubChem BioAssay (NCI).

“And” between values parts separate entries of the source, which are not always exact repeats. Identical values can stand only once.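 Dose response: 5 concentrations. Exposure: 48 h. Format: 96-well plates. Endpoint: linear interpolation; highest concentration if not reached. GI50 marks 50% less growth. TGI: total growth inhibition.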

Some test systems named below: A498 renal; HCT-15 colon; HS 578T breast; K-562 leukemia; MCF7 breast; NCI-H226 lung; NCI-H23 lung; NCI/ADR-RES ovarian; RPMI-8226 leukemia; SNB-75 CNS.
Experiment in all cases: NCI tumour cell line growth inhibition, 48 h

In the case of `COC(=O)/C=C/c1cn(C(C)=O)c2ccc(Br)cc12`, the GI50 in the test with A498 renal is 20.9 µM; with HCT-15 colon, 23.4 µM; in the test on HS 578T breast, 22 µM; with K-562 leukemia, 0.967 µM; with MCF7 breast, 15.7 µM; in the test with NCI-H226 lung it was 20.9 µM. The GI50 in the test on NCI-H23 lung was 27.9 µM; in the test with NCI/ADR-RES ovarian, 29.4 µM; with RPMI-8226 leukemia, 19 µM; with SNB-75 CNS, 16.1 µM. For the same molecule, the TGI is 45.7 µM in the test with A498 renal; > 100 µM with HCT-15 colon; 76.2 µM with HS 578T breast; > 23 µM in the test on K-562 leukemia; > 100 µM in the test with MCF7 breast; > 93.4 µM in the test on NCI-H226 lung. Moreover, the TGI is > 100 µM with NCI-H23 lung, > 100 µM in the test with NCI/ADR-RES ovarian, > 100 µM with RPMI-8226 leukemia and 55.2 µM with SNB-75 CNS.

In the case of `Nc1c(C(=O)c2ccc(CCCN3CCOCC3)cc2)cnn1-c1ccc(F)cc1`, the GI50 is > 14.5 µM with A498 renal; > 25 µM in the test with HCT-15 colon; > 25 µM in the test on HS 578T breast; 9.33 µM in the test with K-562 leukemia; > 25 µM in the test with MCF7 breast; > 15.2 µM in the test with NCI-H226 lung. The GI50 with NCI-H23 lung was > 25 µM; in the test with NCI/ADR-RES ovarian it was > 25 µM; in the test with RPMI-8226 leukemia, > 15.4 µM; in the test on SNB-75 CNS, > 25 µM. Also, the TGI in the test with A498 renal, in the test with HCT-15 colon, with HS 578T breast, in the test on K-562 leukemia, with MCF7 breast and in the test on NCI-H226 lung was > 25 µM throughout. Moreover, the TGI in the test with NCI-H23 lung, with NCI/ADR-RES ovarian, in the test on RPMI-8226 leukemia and in the test with SNB-75 CNS was > 25 µM throughout.

Consider `C/C(=C(\c1ccc(OCCN2CCCCCC2)cc1)c1ccc(OC(=O)Cc2ccccc2)cc1)c1ccc(Cl)cc1`, for which the GI50 with A498 renal was 6.35 µM; with HCT-15 colon, 1.79 µM; with HS 578T breast it was 2.86 µM; in the test with K-562 leukemia, 0.77 µM; in the test on MCF7 breast, 0.382 µM; in the test on NCI-H226 lung, 2.94 µM. The GI50 was 2.81 µM in the test with NCI-H23 lung, 2.99 µM in the test on NCI/ADR-RES ovarian, 1.82 µM in the test on RPMI-8226 leukemia and 2.3 µM in the test with SNB-75 CNS. Further, the TGI in the test with A498 renal is 16.7 µM; in the test on HCT-15 colon, 4.26 µM; in the test with HS 578T breast, 6.52 µM; with K-562 leukemia it was 12.1 µM; with MCF7 breast, 3.83 µM; with NCI-H226 lung, 7.32 µM. Besides, the TGI in the test with NCI-H23 lung was 7.13 µM; with NCI/ADR-RES ovarian, 6.86 µM; in the test with RPMI-8226 leukemia it was 5.47 µM; with SNB-75 CNS it was 5.33 µM.

On to `COc1cc(O)c2c(c1)C(=O)c1cc3c(c(O)c1C2=O)C(OC1OC(C)C(O)C(O)C1OC)C(OC)C(C)(O)C3=O` (configuration not stated), for which the GI50 is 1.58 µM in the test with A498 renal; 2.65 µM with HCT-15 colon; 3.34 µM in the test on HS 578T breast; 2.24 µM and 12.2 µM in the test on K-562 leukemia; 2.22 µM in the test on NCI-H226 lung; 2.36 µM in the test on NCI-H23 lung. Also, the GI50 in the test with NCI/ADR-RES ovarian is 2.86 µM; in the test with RPMI-8226 leukemia, 2.46 µM and 9.76 µM; with SNB-75 CNS, 2.84 µM. Also, the TGI in the test with A498 renal is 3.13 µM and 5.31 µM; in the test with HCT-15 colon, 12.2 µM and 7.35 µM; in the test on HS 578T breast, 19.5 µM; with K-562 leukemia, > 100 µM and 72.5 µM; in the test on MCF7 breast it was 6.76 µM and 6.4 µM; in the test with NCI-H226 lung, 4.82 µM and 9.03 µM. Moreover, the TGI is 6.03 µM and 8.08 µM in the test with NCI-H23 lung; 15.8 µM and 11 µM in the test with NCI/ADR-RES ovarian; 59.6 µM and 30.5 µM in the test on RPMI-8226 leukemia; 15.7 µM and 10.1 µM in the test on SNB-75 CNS.

For `O=C1OC(c2ccccc2)(c2cc(Br)c(O)c(Br)c2)c2ccccc21` (configuration not stated), the GI50 in the test on A498 renal was 21.1 µM; with HCT-15 colon, 25.8 µM; in the test on HS 578T breast it was 18.5 µM; with K-562 leukemia, 32.5 µM; in the test with MCF7 breast it was 23.8 µM; in the test with NCI-H226 lung, 26.2 µM. In addition, the GI50 in the test with NCI-H23 lung was 21.3 µM; with NCI/ADR-RES ovarian it was 26 µM; in the test with RPMI-8226 leukemia, 28.7 µM; in the test on SNB-75 CNS, 20.3 µM. Moreover, the TGI is 52 µM with A498 renal; 76.2 µM in the test with HCT-15 colon; 57.3 µM with HS 578T breast; > 100 µM in the test on K-562 leukemia; 78.7 µM in the test with MCF7 breast; 84.4 µM in the test on NCI-H226 lung. Further, the TGI in the test with NCI-H23 lung is 59.1 µM; in the test on NCI/ADR-RES ovarian, 84.3 µM; in the test with RPMI-8226 leukemia it was 78.5 µM; in the test on SNB-75 CNS it was 72 µM.

With `CNC(=O)Oc1cc(C)c(/C=C/c2cncc(C(=O)NC)c2)c(C)c1`, the GI50 in the test with A498 renal was > 25 µM; in the test on HCT-15 colon, > 25 µM; with HS 578T breast, 12.9 µM; in the test on K-562 leukemia, 15.3 µM; in the test on MCF7 breast, > 25 µM; in the test with NCI-H226 lung, > 25 µM. Further, the GI50 with NCI-H23 lung was > 25 µM; in the test on NCI/ADR-RES ovarian it was > 25 µM; in the test with RPMI-8226 leukemia it was > 25 µM; in the test with SNB-75 CNS, 9.45 µM. The TGI with A498 renal, in the test with HCT-15 colon, with HS 578T breast, with K-562 leukemia, in the test on MCF7 breast and in the test on NCI-H226 lung was > 25 µM each time. The TGI is > 25 µM in the test with NCI-H23 lung, > 25 µM with NCI/ADR-RES ovarian, > 25 µM in the test with RPMI-8226 leukemia and 24.6 µM in the test on SNB-75 CNS.

On to `COC(=O)[C@H](Cc1ccc(O)cc1)NC(=O)[C@@H](OC)[C@@H]1Cc2cc3cc(OC4CC(OC5CC(O)C(O)C(C)O5)C(O)C(C)O4)c(C)c(O)c3c(O)c2C(=O)[C@H]1OC1CC(OC2CC(OC3CC(C)(O)C(O)C(C)O3)C(O)C(C)O2)C(O)C(C)O1` (some centres not stated), for which the GI50 in the test on A498 renal is 0.0892 µM; in the test with HCT-15 colon, 1.95 µM; with HS 578T breast, 0.0654 µM; in the test with K-562 leukemia, 0.116 µM; in the test on MCF7 breast it was 0.0119 µM; in the test with NCI-H226 lung, 0.0759 µM. Moreover, the GI50 with NCI-H23 lung is 0.104 µM; in the test with NCI/ADR-RES ovarian, > 25 µM; in the test with RPMI-8226 leukemia, 0.0417 µM; in the test with SNB-75 CNS, 0.0773 µM. Moreover, the TGI in the test on A498 renal is 0.451 µM; in the test with HCT-15 colon it was > 25 µM; with HS 578T breast, 5.36 µM; in the test with K-562 leukemia it was > 25 µM; in the test with MCF7 breast it was > 25 µM; in the test on NCI-H226 lung it was 0.582 µM. For the same molecule, the TGI in the test with NCI-H23 lung was > 25 µM; in the test with NCI/ADR-RES ovarian it was > 25 µM; with RPMI-8226 leukemia, 2.02 µM; with SNB-75 CNS it was 1.08 µM.

For `COc1cc(OC)c(NC(=O)c2cc3ccccc3cc2O)cc1Cl`, the GI50 was 2.15 µM with A498 renal; 3.38 µM with HCT-15 colon; 2.72 µM in the test on HS 578T breast; 4.42 µM with K-562 leukemia; 2.51 µM in the test with MCF7 breast; 3.32 µM in the test with NCI-H226 lung. The GI50 in the test with NCI-H23 lung was 2.38 µM; with NCI/ADR-RES ovarian, 2.63 µM; in the test with RPMI-8226 leukemia, 2.82 µM; in the test on SNB-75 CNS, 1.59 µM. Besides, the TGI in the test on A498 renal is 5.57 µM; in the test with HCT-15 colon, 19.4 µM; with HS 578T breast it was 8.95 µM; with K-562 leukemia, > 100 µM; with MCF7 breast, 9.08 µM; with NCI-H226 lung, 17.7 µM. Moreover, the TGI was found to be 7.61 µM with NCI-H23 lung, 9.33 µM with NCI/ADR-RES ovarian, 10.9 µM with RPMI-8226 leukemia and 15 µM with SNB-75 CNS.

On to `Cc1ncsc1-c1ccc(CNC(=O)[C@@H]2C[C@@H](O)CN2C(=O)[C@@H](NC(=O)C2(C#N)CC2)C(C)(C)C)cc1`, for which the GI50 in the test with A498 renal was 24 µM; in the test on HCT-15 colon it was > 100 µM; in the test with HS 578T breast, 50.5 µM; in the test with MCF7 breast it was > 100 µM; with NCI-H226 lung it was > 100 µM; with NCI-H23 lung, > 100 µM. The results for the GI50 in the test with NCI/ADR-RES ovarian, in the test with RPMI-8226 leukemia and in the test on SNB-75 CNS were > 100 µM, 62.4 µM and 33.7 µM, respectively. Further, the TGI in the test on A498 renal, in the test on HCT-15 colon, with HS 578T breast, in the test on MCF7 breast, in the test on NCI-H226 lung and in the test with NCI-H23 lung was > 100 µM each time. Also, the TGI in the test on NCI/ADR-RES ovarian, in the test with RPMI-8226 leukemia and in the test on SNB-75 CNS was > 100 µM each time.

Consider `C=CN(C)S(C)(=O)=O`, for which the GI50 in the test on A498 renal, with HCT-15 colon, in the test on HS 578T breast, in the test with K-562 leukemia, in the test on MCF7 breast and with NCI-H226 lung was > 100 µM each time. The GI50 in the test with NCI/ADR-RES ovarian, in the test on RPMI-8226 leukemia and with SNB-75 CNS was > 100 µM in each case. For the same molecule, the TGI in the test with A498 renal, with HCT-15 colon, in the test with HS 578T breast, in the test on K-562 leukemia, in the test with MCF7 breast and with NCI-H226 lung was > 100 µM each time. The TGI in the test with NCI/ADR-RES ovarian, with RPMI-8226 leukemia and with SNB-75 CNS was > 100 µM in each case.

With `S=C(N/N=C(/c1ccccc1)c1ccccn1)N1CCCCCC1`, the GI50 in the test with A498 renal is 0.00973 µM; with HCT-15 colon, 0.00327 µM; in the test with HS 578T breast, 1.54 µM; in the test with K-562 leukemia it was < 0.001 µM; in the test on MCF7 breast, < 0.001 µM; in the test with NCI-H226 lung, 0.02 µM. For the same molecule, the GI50 was < 0.001 µM in the test on NCI/ADR-RES ovarian and 0.66 µM in the test with SNB-75 CNS. The TGI is 0.775 µM and 1.84 µM in the test with A498 renal; 2.05 µM and 1.53 µM with HCT-15 colon; 7.58 µM and 7.59 µM in the test on HS 578T breast; 0.0117 µM in the test with K-562 leukemia; 0.194 µM and 1.56 µM with MCF7 breast; 1.19 µM and 1.58 µM in the test on NCI-H226 lung. In addition, the TGI was 2.11 µM with NCI-H23 lung; 1.28 µM and 2.54 µM in the test on NCI/ADR-RES ovarian; 2.04 µM and 1.95 µM in the test with SNB-75 CNS.
